Laboratory results: PubChem BioAssay AID256 (DTP/NCI, 2004)
Inconclusive results and toxic doses are left out.

System: CD2F1 mice, L1210 leukemia ip, survival T/C
Experiment: NCI In Vivo Anticancer Drug Screen. Data for tumor model L1210 Leukemia (intraperitoneal) in CD2F1 (CDF1) mice
Conditions: higher = longer survival
Method in brief: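 Transplantable tumor in mice; compound-treated vs vehicle-treated groups. Read-out = treated/control ratio of the measured endpoint.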

[1] = endpoint: mean survival time, dose: 100.0 mg/kg/injection, schedule: Q04DX003 (ip), vehicle: saline
[2] = endpoint: mean survival time, dose: 100.0 mg/kg/injection, schedule: Q01DX009 (ip), vehicle: saline with Tween-80
[3] = endpoint: mean survival time, dose: 200.0 mg/kg/injection, schedule: Q01DX009 (ip), vehicle: saline with Tween-80
[4] = endpoint: mean survival time, dose: 400.0 mg/kg/injection, schedule: Q01DX009 (ip), vehicle: saline with Tween-80
[5] = endpoint: mean survival time, dose: 100.0 mg/kg/injection, schedule: Q01DX001 (ip), vehicle: saline with Tween-80
[6] = endpoint: mean survival time, dose: 200.0 mg/kg/injection, schedule: Q01DX001 (ip), vehicle: saline with Tween-80
[7] = endpoint: mean survival time, dose: 400.0 mg/kg/injection, schedule: Q01DX001 (ip), vehicle: saline with Tween-80
[8] = endpoint: mean survival time, dose: 100.0 mg/kg/injection, schedule: Q04DX003 (ip), vehicle: saline with Tween-80
[9] = endpoint: mean survival time, dose: 200.0 mg/kg/injection, schedule: Q04DX003 (ip), vehicle: saline with Tween-80
[10] = endpoint: mean survival time, dose: 400.0 mg/kg/injection, schedule: Q04DX003 (ip), vehicle: saline with Tween-80
[11] = endpoint: mean survival time, dose: 100.0 mg/kg/injection, schedule: Q04DX003 (ip), vehicle: other
[12] = endpoint: mean survival time, dose: 200.0 mg/kg/injection, schedule: Q04DX003 (ip), vehicle: other

CCCCCCCCCCCCNC(=O)C[n+]1cccc(C(=O)NC)c1
T/C (endpoint: mean survival time, dose: 12.5 mg/kg/injection, schedule: Q01DX009 (ip), vehicle: saline): 98 % of control
T/C (endpoint: mean survival time, dose: 18.8 mg/kg/injection, schedule: Q04DX003 (ip), vehicle: saline): 98 % of control
T/C (endpoint: mean survival time, dose: 25.0 mg/kg/injection, schedule: Q01DX009 (ip), vehicle: saline): 101 % of control
T/C (endpoint: mean survival time, dose: 37.5 mg/kg/injection, schedule: Q04DX003 (ip), vehicle: saline): 95 % of control
T/C (endpoint: mean survival time, dose: 50.0 mg/kg/injection, schedule: Q01DX009 (ip), vehicle: saline): 98 % of control
T/C (endpoint: mean survival time, dose: 75.0 mg/kg/injection, schedule: Q04DX003 (ip), vehicle: saline): 101 % of control

CN(C)CCOc1cccc(Br)c1
T/C (endpoint: mean survival time, dose: 25.0 mg/kg/injection, schedule: Q04DX003 (ip), vehicle: saline): 100 % of control
T/C (endpoint: mean survival time, dose: 50.0 mg/kg/injection, schedule: Q04DX003 (ip), vehicle: saline): 100 % of control
T/C [1]: 100 % of control

CC(C)C(Br)C(=O)NCC(=O)O (stereo unspecified)
T/C [2]: 103 % of control
T/C [3]: 97 % of control
T/C [4]: 98 % of control

c1ccc(-c2ccc(C3=NN(c4ccccc4)C(c4ccccc4)C3NC3CCCCC3)cc2)cc1 (stereo unspecified)
T/C (endpoint: mean survival time, dose: 12.5 mg/kg/injection, schedule: Q01DX009 (ip), vehicle: other): 100 % of control
T/C (endpoint: mean survival time, dose: 25.0 mg/kg/injection, schedule: Q01DX009 (ip), vehicle: other): 104 % of control
T/C (endpoint: mean survival time, dose: 50.0 mg/kg/injection, schedule: Q01DX009 (ip), vehicle: other): 98 % of control
T/C (endpoint: mean survival time, dose: 100.0 mg/kg/injection, schedule: Q01DX009 (ip), vehicle: other): 106 % of control
T/C (endpoint: mean survival time, dose: 200.0 mg/kg/injection, schedule: Q01DX009 (ip), vehicle: other): 98 % of control

O=C(N/N=C\c1ccc(Cl)cc1)C(=O)N/N=C\c1ccc(Cl)cc1
T/C [5]: 106 % of control
T/C [6]: 92 % of control
T/C [7]: 89 % of control

C[N+]1(C)CCC(c2ccccc2)(c2ccccc2)C(=O)C1
T/C (endpoint: mean survival time, dose: 75.0 mg/kg/injection, schedule: Q01DX001 (ip), vehicle: saline): 101 % of control
T/C (endpoint: mean survival time, dose: 150.0 mg/kg/injection, schedule: Q01DX001 (ip), vehicle: saline): 101 % of control

CSCCC(NC(=O)c1ccccc1)C(=O)O (stereo unspecified)
T/C [2]: 91 % of control
T/C [3]: 87 % of control
T/C [4]: 90 % of control

COC1CC2C3CCC4(OC5CC(C)CN(C(C)=O)C5C4C)C(C)=C3C(=O)C2C2(C)CCC3CC312 (stereo unspecified)
T/C [8]: 106 % of control
T/C [9]: 101 % of control
T/C [10]: 104 % of control

COC12C(COC(N)=O)C3=C(C(=O)C(C)=C(N4CC4C#N)C3=O)N1CC1NC12 (stereo unspecified)
T/C (endpoint: median survival time, dose: 0.19 mg/kg/injection, schedule: Q01DX001 (ip), vehicle: water): 120 % of control
T/C (endpoint: median survival time, dose: 0.38 mg/kg/injection, schedule: Q01DX001 (ip), vehicle: water): 121 % of control
T/C (endpoint: median survival time, dose: 0.75 mg/kg/injection, schedule: Q01DX001 (ip), vehicle: water): 123 % of control
T/C (endpoint: median survival time, dose: 1.5 mg/kg/injection, schedule: Q01DX001 (ip), vehicle: water): 121 % of control

COc1cc(NC(=O)Nc2ccccc2Cl)c(OC)cc1Cl
T/C (endpoint: mean survival time, dose: 25.0 mg/kg/injection, schedule: Q04DX002 (ip), vehicle: saline with Tween-80): 98 % of control
T/C (endpoint: mean survival time, dose: 50.0 mg/kg/injection, schedule: Q04DX002 (ip), vehicle: saline with Tween-80): 94 % of control
T/C (endpoint: mean survival time, dose: 100.0 mg/kg/injection, schedule: Q04DX002 (ip), vehicle: saline with Tween-80): 102 % of control

CCC1CCCC[N-]1.CCC1CCCC[N-]1.[Cl][Pt+2][Cl] (stereo unspecified)
T/C (endpoint: mean survival time, dose: 18.8 mg/kg/injection, schedule: Q04DX003 (ip), vehicle: saline with Tween-80): 106 % of control
T/C (endpoint: mean survival time, dose: 37.5 mg/kg/injection, schedule: Q04DX003 (ip), vehicle: saline with Tween-80): 100 % of control
T/C (endpoint: mean survival time, dose: 75.0 mg/kg/injection, schedule: Q04DX003 (ip), vehicle: saline with Tween-80): 91 % of control
T/C (endpoint: mean survival time, dose: 150.0 mg/kg/injection, schedule: Q04DX003 (ip), vehicle: saline with Tween-80): 91 % of control
T/C (endpoint: mean survival time, dose: 300.0 mg/kg/injection, schedule: Q04DX003 (ip), vehicle: saline with Tween-80): 88 % of control

O=C1CC[C@H](NC(=O)OCc2ccccc2)C(=O)O1
T/C [2]: 88 % of control
T/C [3]: 90 % of control
T/C [4]: 88 % of control

O=C(O)C1CC1.[Ag]
T/C (endpoint: mean survival time, dose: 0.78 mg/kg/injection, schedule: Q01DX009 (ip), vehicle: water): 100 % of control
T/C (endpoint: mean survival time, dose: 1.56 mg/kg/injection, schedule: Q01DX009 (ip), vehicle: water): 100 % of control
T/C (endpoint: mean survival time, dose: 3.12 mg/kg/injection, schedule: Q01DX009 (ip), vehicle: water): 96 % of control
T/C (endpoint: mean survival time, dose: 6.25 mg/kg/injection, schedule: Q01DX009 (ip), vehicle: water): 102 % of control
T/C (endpoint: mean survival time, dose: 12.5 mg/kg/injection, schedule: Q01DX009 (ip), vehicle: water): 102 % of control
T/C (endpoint: mean survival time, dose: 25.0 mg/kg/injection, schedule: Q01DX009 (ip), vehicle: water): 104 % of control
T/C [1]: 93 % of control
T/C (endpoint: mean survival time, dose: 200.0 mg/kg/injection, schedule: Q04DX003 (ip), vehicle: saline): 93 % of control

CC(C)(C)N1C2CCCC21 (stereo unspecified)
T/C (endpoint: mean survival time, dose: 5.0 mg/kg/injection, schedule: Q01DX001 (ip), vehicle: saline): 106 % of control
T/C (endpoint: mean survival time, dose: 5.0 mg/kg/injection, schedule: Q01DX009 (ip), vehicle: saline): 102 % of control
T/C (endpoint: mean survival time, dose: 10.0 mg/kg/injection, schedule: Q01DX001 (ip), vehicle: saline): 106 % of control
T/C (endpoint: mean survival time, dose: 10.0 mg/kg/injection, schedule: Q01DX009 (ip), vehicle: saline): 102 % of control
T/C (endpoint: mean survival time, dose: 20.0 mg/kg/injection, schedule: Q01DX001 (ip), vehicle: saline): 95 % of control
T/C (endpoint: mean survival time, dose: 20.0 mg/kg/injection, schedule: Q01DX009 (ip), vehicle: saline): 100 % of control

Nc1ccc(CCc2nc(N)[nH]c(=O)c2-c2ccc(Cl)cc2)cc1
T/C (endpoint: mean survival time, dose: 37.5 mg/kg/injection, schedule: Q01DX001 (ip), vehicle: saline with Tween-80): 100 % of control
T/C (endpoint: mean survival time, dose: 75.0 mg/kg/injection, schedule: Q01DX001 (ip), vehicle: saline with Tween-80): 91 % of control
T/C (endpoint: mean survival time, dose: 150.0 mg/kg/injection, schedule: Q01DX001 (ip), vehicle: saline with Tween-80): 94 % of control

ClC=P(c1ccccc1)(c1ccccc1)c1ccccc1
T/C [2]: 96 % of control
T/C [3]: 92 % of control

C[C@]12CC[C@H](OC(=O)Cc3ccc(N(CCCl)CCCl)cc3)CC1=CC[C@@H]1[C@@H]2CC[C@]2(C)C(=O)CC[C@@H]12
T/C [5]: 92 % of control
T/C [2]: 100 % of control
T/C [6]: 90 % of control
T/C [3]: 107 % of control
T/C [7]: 96 % of control
T/C [4]: 111 % of control

O=C(COc1cc(Cl)c(Cl)cc1Cl)OCCN(CCOC(=O)COc1cc(Cl)c(Cl)cc1Cl)C(=O)COc1ccc(Cl)cc1
T/C [11]: 93 % of control
T/C [12]: 96 % of control
T/C (endpoint: mean survival time, dose: 400.0 mg/kg/injection, schedule: Q04DX003 (ip), vehicle: other): 107 % of control

O=S(=O)(Cc1ccc(CS(=O)(=O)c2ccc(Cl)cc2)cc1)c1ccc(Cl)cc1
T/C (endpoint: mean survival time, dose: 12.5 mg/kg/injection, schedule: Q01DX009 (ip), vehicle: saline with Tween-80): 91 % of control
T/C (endpoint: mean survival time, dose: 25.0 mg/kg/injection, schedule: Q01DX009 (ip), vehicle: saline with Tween-80): 90 % of control
T/C (endpoint: mean survival time, dose: 50.0 mg/kg/injection, schedule: Q01DX009 (ip), vehicle: saline with Tween-80): 91 % of control

O=C(CCl)OCC(Cl)Cl
T/C [2]: 104 % of control
T/C [3]: 112 % of control

CC1=C(N2CC2)C(=O)C2=C(C1=O)N1CC3C(N3C)C1(O)C2COC(N)=O (stereo unspecified)
T/C (endpoint: mean survival time, dose: 3.5 mg/kg/injection, schedule: Q01DX001 (ip), vehicle: carboxymethylcellulose (CMC)): 122 % of control
T/C (endpoint: mean survival time, dose: 5.25 mg/kg/injection, schedule: Q01DX001 (ip), vehicle: carboxymethylcellulose (CMC)): 151 % of control
T/C (endpoint: mean survival time, dose: 7.0 mg/kg/injection, schedule: Q01DX001 (ip), vehicle: carboxymethylcellulose (CMC)): 119 % of control

CCOc1ccccc1NC(=O)c1ccc(Cl)cc1
T/C [8]: 97 % of control
T/C [9]: 100 % of control
T/C [10]: 103 % of control

COC1CCC2CCN(C)C(Cc3ccc(Oc4ccc(CC5C6CC(OC)CCC6CCN5C)cc4)cc3)C2C1 (stereo unspecified)
T/C (endpoint: mean survival time, dose: 1.56 mg/kg/injection, schedule: Q04DX002 (ip), vehicle: saline with Tween-80): 90 % of control
T/C (endpoint: mean survival time, dose: 3.13 mg/kg/injection, schedule: Q04DX002 (ip), vehicle: saline with Tween-80): 94 % of control

OC1(C2(O)CCCC2)CCCC1
T/C [2]: 105 % of control
T/C [3]: 111 % of control
T/C [4]: 103 % of control

O=C(C(F)(F)F)C(F)(F)F (tested in a mixture with another compound)
T/C (endpoint: mean survival time, dose: 25.0 mg/kg/injection, schedule: Q04DX003 (ip), vehicle: other): 100 % of control
T/C (endpoint: mean survival time, dose: 50.0 mg/kg/injection, schedule: Q04DX003 (ip), vehicle: other): 95 % of control
T/C [11]: 94 % of control
T/C [12]: 92 % of control
